How the values were obtained:
Type in all cases: in vitro ADME
[1] = In vitro liver microsomal metabolism study, mouse; conditions: mouse liver microsomes
Procedure: (§1) Metabolic stability was assessed by incubating compounds in the presence of human, rat, and mouse liver microsomal fractions (Xenotech, Kansas City, KS, USA). All chemicals and reagents, including control compounds, were purchased from commercial sources such as Sigma-Aldrich (St. Louis, MO, USA) or Toronto Research Chemicals (North York, ON, Canada). Liver microsomal incubations were conducted with 100 mM phosphate buffer, 0.5 mg/mL of liver microsomal protein, 2 mM NADPH, 2.5 mM UDPGA, 3 mM MgCl2, alamethicin, and 1 μM test article for a total incubation volume of 80 µL. All reagents except the liver microsomes were mixed together and aliquoted (60 μL) into 96-well plates. The reaction was initiated by adding the microsomes (20 μL). At 0, 3, 7, 12, 20, and 30 min time points, the reactions were terminated with the addition of acetonitrile-containing carbutamide (as an internal standard). The terminated samples were then centrifuged at 2 °C to pellet the protein and the supernatant was injected onto an LC–MS. The test article was monitored for loss over time and the t1/2 was determined. The calculated t1/2 was then used as described below to determine the Eh (hepatic extraction ratio) for both human and rat.
(§2) The intrinsic clearance (CLint), hepatic clearance (CLh), and hepatic extraction ratio (Eh) were calculated using the equations below. CLint = (0.693/t1/2 in vitro) × (mL incubation volume/mg microsomal protein) × (X mg of microsomal protein/gram of liver) × (Y g of liver/kg of body weight)(1) CLh = Q × CLint/Q + CLint(2) Eh = CLh/Q(3) where: • CLint = intrinsic clearance (calculated from microsomal incubations) • X = 40 for human, 41.5 for rat and 45 for mouse • Y = 21.4 for human, 40 for rat and 50 for mouse • t1/2 = half-life • CLh = hepatic clearance • Q = liver blood flow rate = 1.24 L/h/kg for human, 4.8 L/h/kg for rat, and 5.4 L/h/kg for mouse • Eh = hepatic extraction ratio • CLh = hepatic clearance

[2] = In vitro liver microsomal metabolism study, human; conditions: human liver microsomes
Procedure: as §1, §2

[3] = In vitro liver microsomal metabolism study, rat; conditions: rat liver microsomes
Procedure: as §1, §2

[4] = Plasma stability study, human; conditions: pooled plasma, 37 °C, read-out: Plasma Half-Life, t1/2
Procedure: (§3) Briefly, plasma stability was assessed by incubating compounds in the presence of human (pooled) and mouse (pooled) plasma (Bioreclamation, Westbury, NY, USA). All chemicals and reagents including control compounds were purchased from commercial sources such as Sigma-Aldrich or Toronto Research Chemicals. Plasma incubations were conducted by placing plasma (95 μL) in a 96-well microtiter plate and warming to 37 °C for 5 min. The reaction was initiated with the addition of the test article (5 μL of 20 μM), totaling 100 μL in incubation volume. At 0, 15, 30, 60, and 120 min time points, the reactions were terminated with the addition of acetonitrile-containing carbutamide (as an internal standard). The terminated samples were then centrifuged at 2 °C to pellet the protein, and the supernatant was injected onto an LC–MS. The test article was monitored for loss over time and the t1/2 was determined.

[5] = Plasma stability study, mouse; conditions: mouse, pooled plasma, 37 °C, read-out: Plasma Half-Life, t1/2
Procedure: as §3

[6] = Bidirectional permeability in Caco-2 cells; conditions: human, Caco-2, 5 µM, alone; for efflux ratio at 60 min, 5 µM: read-out: Ratio (B/A), efflux ratio
Procedure: The Caco-2 cell culture and bidirectional permeability assays used in the study were adapted from previous studies at Takeda. Briefly, Caco-2 cells were obtained from American Type Culture Collection (ATCC) (Manassas, VA, USA) and were cultured in 175 cm^2 tissue culture T-flasks (Corning Life Sciences, Corning, NY, USA). For bidirectional permeability assays, cells were plated onto Costar 24-well culture plates (0.33 cm^2/well, […] (Corning Life Sciences, Corning, NY, USA) by adding 1 × 10^5 cells suspended in 0.2 mL of culture medium (Dulbecco’s modified Eagle’s medium [DMEM] with 0.1 mM non-essential amino acids, 2 mM L-glutamine, 4.5 g/L glucose, and 10% fetal bovine serum [FBS]) to the upper chamber of each well of the 24-well transwell plate. Cell-free culture medium (40 mL) was added to the lower chamber reservoir (Corning Life Sciences, Corning, NY, USA). The transwell plates were then incubated at 37 °C in an atmosphere of 5% CO2 for 25 days to ensure complete enterocyte-like differentiation of the cells, and the culture medium was changed every three to four days during the incubation period. Cell monolayers with transepithelial electrical resistance (TEER) values > 250 ohms × cm^2 were used for the bidirectional permeability assays.
All chemicals and reagents including control compounds were purchased from commercial sources such as Sigma-Aldrich or synthesized in house (pevonedistat and LY335979). Bidirectional transport studies were performed at 37 °C. Before each experiment, the confluent cell monolayers on transwell inserts were washed and equilibrated for 30 min with transport media (Hank’s Balanced Salt Solution [HBSS] containing 25 mM 4-(2-hydroxyethyl)-1-piperazineethanesulfonic acid [HEPES] and 10 mM glucose, pH 7.4 or 6.5). The bidirectional permeability of 5 µM of the cyclohexane derivative was assessed alone or in the presence of 5 µM LY335979, 5 µM K0143, or 10 µM Elacridar to inhibit P-gp, BCRP, and both efflux transporters, respectively. Additionally, the bi-directional permeability of 5 µM solutions of nadolol (low permeable control marker), minoxidil (high permeable marker), propranolol (high permeable marker), and pevonedistat (efflux transporter control) was also assessed. The experiment was initiated by adding a solution containing the test compounds and LY335979 to either the apical (for apical-to-basolateral [A-to-B] transport) or basolateral (for basolateral-to-apical [B-to-A] transport) compartment. Lucifer yellow (50 µM) was added to each donor chamber in the experiment to serve as a paracellular transport control and to monitor cell monolayer integrity. The apical volume was 0.2 mL and the basolateral volume was 1.0 mL. Bovine serum albumin (BSA, Sigma Aldrich) (5%) was added to the transport media on the receiver side to prevent non-specific binding of the test compound to the polystyrene well. After the addition of test compound into the donor side, […] of the receiving solution were withdrawn from the receiver side at 30 and 60 min. A […] of fresh transport media was immediately added to the receiver side at 30 and 60 min. The samples were placed into 96-well black plates (PerkinElmer Life Sciences, Boston, MA, USA) for fluorescence measurement (excitation at 450 nm and emission at 535 nm). After this measurement, the amounts of cyclohexane derivative and control compounds in each sample were quantified with liquid chromatography–mass spectrometry (LC–MS). The time course of drug transported across cell monolayers was analyzed to determine the time and rate of steady-state flux. The transport rate (total amount of drug present in the receiver chamber per unit time), Papp, and efflux ratio were calculated as described in Equations (4) and (5). […]

In the case of `COc1ccc2c(c1)[C@]13CCCC[C@@H]1[C@H](C2)N(C)CC3` [Dextromethorphan, reference compound], the CLh [1] is reported as 77.3 mL/min/kg, the “Eh (hepatic extraction ratio)” value [1] is reported as 0.860 and the CLint scaled at 1 µM ([1]; 1 μM, NADPH + UDPGA) is reported as 552 mL/min/kg. The CLh [2] was 14 mL/min/kg, the “Eh (hepatic extraction ratio)” value [2] was 0.676 and the CLint scaled at 1 µM ([2]; 1 μM, NADPH + UDPGA) was 43.2 mL/min/kg. For the same compound, the CLh [3] was 71.2 mL/min/kg, the “Eh (hepatic extraction ratio)” value [3] was 0.889 and the CLint scaled at 1 µM ([3]; 1 μM, NADPH + UDPGA) was 642 mL/min/kg.

Compound `CCOC(=O)[C@H](CCc1ccccc1)N[C@@H](C)C(=O)N1CCC[C@H]1C(=O)O` [Enalapril, reference compound] has a half-life at 1 µM [4] of 283 min and a half-life at 1 µM [5] of 30.6 min.

`Nc1cc(N2CCCCC2)nc(N)[n+]1[O-]` [Minoxidil, reference compound] gave a Papp A→B at 60 min, 5 µM [6] of 7.81 ×10⁻⁶ cm/s, a Papp B→A at 60 min, 5 µM [6] of 9.78 ×10⁻⁶ cm/s and an efflux ratio at 60 min, 5 µM [6] of 1.3.

Work on `CC(C)(C)NCC(O)COc1cccc2c1CC(O)C(O)C2` (stereo not shown) [Nadolol, reference compound] yielded a Papp A→B at 60 min, 5 µM [6] of 0.36 ×10⁻⁶ cm/s, a Papp B→A at 60 min, 5 µM [6] of 1.45 ×10⁻⁶ cm/s and an efflux ratio at 60 min, 5 µM [6] of 4.1.

`NS(=O)(=O)OC[C@@H]1C[C@@H](n2ccc3c(N[C@H]4CCc5ccccc54)ncnc32)C[C@@H]1O` [Pevonedistat, reference compound] showed a Papp A→B at 60 min, 5 µM [6] of 3.37 ×10⁻⁶ cm/s, a Papp B→A at 60 min, 5 µM [6] of 63.4 ×10⁻⁶ cm/s and an efflux ratio at 60 min, 5 µM [6] of 18.8.

Work on `CC(C)[N+](C)(CCOC(=O)C1c2ccccc2Oc2ccccc21)C(C)C` [Propantheline, reference compound] yielded a half-life at 1 µM [4] of 7.22 min and a half-life at 1 µM [5] of 26 min.

`CC(C)NCC(O)COc1cccc2ccccc12` (stereo not shown) [Propranolol, reference compound] gave a Papp A→B at 60 min, 5 µM [6] of 43.7 ×10⁻⁶ cm/s, a Papp B→A at 60 min, 5 µM [6] of 44.4 ×10⁻⁶ cm/s and an efflux ratio at 60 min, 5 µM [6] of 1.

Source: publication PMC10609273, “Radiosynthesis and Early Evaluation of a Positron Emission Tomography Imaging Probe [^18F]AGAL Targeting Alpha-Galactosidase A Enzyme for Fabry Disease” (Molecules, 2023)
